# In US11350632B2, “Methods, compositions and systems for killing arthropods” (Imerys USA, Inc., priority 2016, dated 2022):
# How the values were obtained:
# Test in all cases: Field trial weekly bioassay on pre-treated substrate
# Type in all cases: in vivo
# [1] = test system: Aedes aegypti; design: mortality found (summary of field trial): concentration or dose not given beside the values
# Description: (§1) During a field trial in New Orleans, bioassays were performed with (1) the expanded, milled ultrafine perlite of Example 1, (2) a lambda-cyhalothrin insecticide (BASF) as positive control, and (3) a negative control (water only). Six samples of each insecticide (1) and (2) and the control (3) were tested against mosquito species Aedes aegypti (dengue and zika vector), Aedes albopictus (tiger mosquito), and Culex quinquefasciatus (nuisance mosquito) by spraying wood chips stored under houses using a STIHL SR 200 backpack sprayer (18 houses total). The houses were selected based on housing structure (raised house), backyard vegetation (green and lush), and location (suburban neighborhood).
# (§2) The lambda cyhalothrin (industry standard insecticide) was prepared according to manufacturer instructions. Lambda cyhalothrin insecticide was diluted with water for spray application. First the application tank was filled with one-half to three-fourths volume of water. The pH of the water was controlled between 5 and 7 using a buffering agent if necessary to adjust the pH. Next, lambda cyhalothrin insecticide was slowly added to the applicator tank water with maximum agitation. Finally, the tank was filled to the desired volume with continuous agitation while applying the spray. To prepare the perlite insecticide spraying solutions, two-thirds of a gallon of water, 0.32 ounces of non-ionic surfactant (Ninex MT615), and 2 lbs expanded, milled ultrafine perlite were thoroughly blended together in a spray tank. Another one-third gallon of water was then added for a total 1 gallon of spray solution containing 20% of ultrafine perlite mechanical insecticide, 79% of water and 1% of Ninex MT615 as dispersant. The ultrafine perlite solution was mixed directly prior to spraying.
# (§3) The ultrafine perlite insecticide, the positive control (lambda cyhalothrin) and the negative control (water) were sprayed directly under the raised houses and porches (which included eaves if reachable) and under vegetation with an applicator. Pre-treated substrates were also prepared for each location by applying the corresponding insecticide or control to a piece of pine. The target coverage was 5-8 ounces per 100 ft^2, with an average coverage of about 10 g/m^2 to 15 g/m^2.
# (§4) Adult mosquitos for each species were introduced to each location, and were identified and counted two weeks prior to the start of the bioassays. Weekly bioassays were performed to test the efficacy of the insecticides over time by collecting a pre-treated substrate from each site and placing ˜10 female mosquitos of the corresponding species into a labeled bioassay cup with the substrate. The cup was then placed in a growth chamber/counter (depending on temperature) for 1 hour and then 24 hours with sugar solution. The number of dead and live mosquitos was recorded and compared to determine the percent mortality. Results are shown in Tables 8-10, in which 100% indicates complete mortality of mosquitoes and 0% indicates zero mortality (no mosquito deaths).
# [2] = test system: Aedes albopictus; design: concentration or dose not given beside the values
# Description: as §1, §2, §3, §4
# [3] = test system: Culex quinquefasciatus; design: concentration or dose not given beside the values
# Description: as §1, §2, §3, §4
# [4] = Week 0, ~10 female mosquitos with pre-treated substrate
# [5] = week not stated, each mosquito species
structure (smiles),measurement,setting,value
"CC1(C)[C@H](C(=O)O[C@H](C#N)c2cccc(Oc3ccccc3)c2)[C@@H]1/C=C(\Cl)C(F)(F)F (racemic) [Lambda cyhalothrin, lambda-cyhalothrin]",Mortality (%) of Andes aegypti,[1]; [4],0%
same,Mortality (%) of Andes aegypti,[1]; Week 1,0%
same,Mortality (%) of Andes aegypti,[1]; Week 2,100%
same,Mortality (%) of Andes aegypti,[1]; Week 3,100%
same,Mortality (%) of Andes aegypti,[1]; Week 4,100%
same,Mortality (%) of Andes aegypti,[1]; Week 5 (heavy rainfall),100%
same,Mortality (%) of Andes aegypti,[1]; Week 6,100%
same,Mortality (%) of Andes aegypti,[1]; Week 7,100%
same,Mortality (%) of Andes aegypti,[1]; Week 8,100%
same,mortality found (summary of field trial),[1]; [5],100%
same,Mortality (%) of Andes albopictus,[2]; [4],0%
same,Mortality (%) of Andes albopictus,[2]; Week 1,0%
same,Mortality (%) of Andes albopictus,[2]; Week 2,100%
same,Mortality (%) of Andes albopictus,[2]; Week 3,100%
same,Mortality (%) of Andes albopictus,[2]; Week 4,100%
same,Mortality (%) of Andes albopictus,[2]; Week 5 (heavy rainfall),100%
same,Mortality (%) of Andes albopictus,[2]; Week 6,100%
same,Mortality (%) of Andes albopictus,[2]; Week 7,100%
same,Mortality (%) of Andes albopictus,[2]; Week 8,100%
same,mortality found (summary of field trial),[2]; [5],100%
same,Mortality (%) of Culex quinquefasciatus,[3]; [4],0%
same,Mortality (%) of Culex quinquefasciatus,[3]; Week 1,0%
same,Mortality (%) of Culex quinquefasciatus,[3]; Week 2,100%
same,Mortality (%) of Culex quinquefasciatus,[3]; Week 3,100%
same,Mortality (%) of Culex quinquefasciatus,[3]; Week 4,97%
same,Mortality (%) of Culex quinquefasciatus,[3]; Week 5 (heavy rainfall),100%
same,Mortality (%) of Culex quinquefasciatus,[3]; Week 6,93%
same,Mortality (%) of Culex quinquefasciatus,[3]; Week 7,100%
same,Mortality (%) of Culex quinquefasciatus,[3]; Week 8,100%
same,mortality found (summary of field trial),[3]; [5],100%
